The source made the active and inactive calls. No cut-off for these calls is given here.
Test system: HepG2
Assay: Cytotoxicity against human HepG2 cells assessed as growth inhibition after 72 hrs by MTT assay
Assay type: functional, cell-based
Conditions: not given

| SMILES | growth inhibition (GI) |
| --- | --- |
| O=c1[nH]cc(F)c(=O)[nH]1 [FLUOROURACIL] | Dose-dependent effect |
| C[C@]12CC[C@H](O)CC1=CC[C@@H]1[C@@H]2CC[C@]2(C)/C(=N/N=C3\C(=O)Nc4cc(F)ccc43)CC[C@@H]12 | Dose-dependent effect |
| C[C@]12CC[C@H](O)CC1=CC[C@@H]1[C@@H]2CC[C@]2(C)/C(=N/N=C3\C(=O)Nc4ccc(Br)cc43)CC[C@@H]12 | Dose-dependent effect |
| C[C@]12CC[C@H](O)CC1=CC[C@@H]1[C@@H]2CC[C@]2(C)/C(=N/N=C3\C(=O)Nc4ccccc43)CC[C@@H]12 | Dose-dependent effect |

Same assay, conditions: HepG2, 72 h

| SMILES | IC50 |
| --- | --- |
| O=c1[nH]cc(F)c(=O)[nH]1 [FLUOROURACIL] | > 150 µM |
| CC(C)c1ccc(/N=C2\CC[C@H]3[C@@H]4CC=C5C[C@@H](O)CC[C@]5(C)[C@H]4CC[C@]23C)cc1 | 44.3 µM |
| C[C@]12CC[C@H](O)CC1=CC[C@@H]1[C@@H]2CC[C@]2(C)/C(=N/N=C3\C(=O)Nc4cc(F)ccc43)CC[C@@H]12 | 19.7 µM |
| C[C@]12CC[C@H](O)CC1=CC[C@@H]1[C@@H]2CC[C@]2(C)/C(=N/Nc3ccccc3)CC[C@@H]12 | 43.1 µM |
| C[C@]12CC[C@H](O)CC1=CC[C@@H]1[C@@H]2CC[C@]2(C)/C(=N/N=C3\C(=O)Nc4ccc(Br)cc43)CC[C@@H]12 | 16.2 µM |
| C[C@]12CC[C@H](O)CC1=CC[C@@H]1[C@@H]2CC[C@]2(C)/C(=N/Nc3ncccc3Cl)CC[C@@H]12 | > 90 µM |
| C[C@]12CC[C@H](O)CC1=CC[C@@H]1[C@@H]2CC[C@]2(C)/C(=N/Cc3ccccc3)CC[C@@H]12 | 32.6 µM |
| C[C@]12CC[C@H](O)CC1=CC[C@@H]1[C@@H]2CC[C@]2(C)/C(=N/c3ccccc3)CC[C@@H]12 | 63.5 µM |
| C[C@]12CC[C@H](O)CC1=CC[C@@H]1[C@@H]2CC[C@]2(C)/C(=N/N=C3\C(=O)Nc4ccc([N+](=O)[O-])cc43)CC[C@@H]12 | 27.4 µM |
| C[C@]12CC[C@H](O)CC1=CC[C@@H]1[C@@H]2CC[C@]2(C)/C(=N/N=C3\C(=O)Nc4ccccc43)CC[C@@H]12 | 13.3 µM |
| C[C@]12CC[C@H](O)CC1=CC[C@@H]1[C@@H]2CC[C@]2(C)/C(=N/N=C3\C(=O)Nc4ccc(I)cc43)CC[C@@H]12 | 22.5 µM |

Test system: not listed separately
Assay: (§1) Cytotoxicity against human HuH7 cells assessed as growth inhibition after 72 hrs by MTT assay
Assay type: functional, cell-based
Conditions: Huh-7, 72 h

| SMILES | IC50 |
| --- | --- |
| O=c1[nH]cc(F)c(=O)[nH]1 [FLUOROURACIL] | > 100 µM |
| CC(C)c1ccc(/N=C2\CC[C@H]3[C@@H]4CC=C5C[C@@H](O)CC[C@]5(C)[C@H]4CC[C@]23C)cc1 | > 90 µM |
| C[C@]12CC[C@H](O)CC1=CC[C@@H]1[C@@H]2CC[C@]2(C)/C(=N/N=C3\C(=O)Nc4cc(F)ccc43)CC[C@@H]12 | 22.3 µM |
| C[C@]12CC[C@H](O)CC1=CC[C@@H]1[C@@H]2CC[C@]2(C)/C(=N/Nc3ccccc3)CC[C@@H]12 | 55.4 µM |
| C[C@]12CC[C@H](O)CC1=CC[C@@H]1[C@@H]2CC[C@]2(C)/C(=N/N=C3\C(=O)Nc4ccc(Br)cc43)CC[C@@H]12 | 13.9 µM |
| C[C@]12CC[C@H](O)CC1=CC[C@@H]1[C@@H]2CC[C@]2(C)/C(=N/Nc3ncccc3Cl)CC[C@@H]12 | > 90 µM |
| C[C@]12CC[C@H](O)CC1=CC[C@@H]1[C@@H]2CC[C@]2(C)/C(=N/Cc3ccccc3)CC[C@@H]12 | > 100 µM |
| C[C@]12CC[C@H](O)CC1=CC[C@@H]1[C@@H]2CC[C@]2(C)/C(=N/c3ccccc3)CC[C@@H]12 | > 100 µM |
| C[C@]12CC[C@H](O)CC1=CC[C@@H]1[C@@H]2CC[C@]2(C)/C(=N/N=C3\C(=O)Nc4ccc([N+](=O)[O-])cc43)CC[C@@H]12 | 30.6 µM |
| C[C@]12CC[C@H](O)CC1=CC[C@@H]1[C@@H]2CC[C@]2(C)/C(=N/N=C3\C(=O)Nc4ccccc43)CC[C@@H]12 | 28.2 µM |
| C[C@]12CC[C@H](O)CC1=CC[C@@H]1[C@@H]2CC[C@]2(C)/C(=N/N=C3\C(=O)Nc4ccc(I)cc43)CC[C@@H]12 | > 70 µM |

Test system: Huh-7
Assay: as §1
Assay type: functional, cell-based
Conditions: not given

| SMILES | growth inhibition (GI) |
| --- | --- |
| O=c1[nH]cc(F)c(=O)[nH]1 [FLUOROURACIL] | Dose-dependent effect |
| C[C@]12CC[C@H](O)CC1=CC[C@@H]1[C@@H]2CC[C@]2(C)/C(=N/N=C3\C(=O)Nc4cc(F)ccc43)CC[C@@H]12 | Dose-dependent effect |
| C[C@]12CC[C@H](O)CC1=CC[C@@H]1[C@@H]2CC[C@]2(C)/C(=N/N=C3\C(=O)Nc4ccc(Br)cc43)CC[C@@H]12 | Dose-dependent effect |
| C[C@]12CC[C@H](O)CC1=CC[C@@H]1[C@@H]2CC[C@]2(C)/C(=N/N=C3\C(=O)Nc4ccccc43)CC[C@@H]12 | Dose-dependent effect |

Test system: not listed separately
Assay: (§2) Cytotoxicity against human A875 cells assessed as growth inhibition after 72 hrs by MTT assay
Assay type: functional, cell-based
Conditions: A875, 72 h

| SMILES | IC50 |
| --- | --- |
| O=c1[nH]cc(F)c(=O)[nH]1 [FLUOROURACIL] | > 150 µM |
| CC(C)c1ccc(/N=C2\CC[C@H]3[C@@H]4CC=C5C[C@@H](O)CC[C@]5(C)[C@H]4CC[C@]23C)cc1 | 61.5 µM |
| C[C@]12CC[C@H](O)CC1=CC[C@@H]1[C@@H]2CC[C@]2(C)/C(=N/N=C3\C(=O)Nc4cc(F)ccc43)CC[C@@H]12 | 29.6 µM |
| C[C@]12CC[C@H](O)CC1=CC[C@@H]1[C@@H]2CC[C@]2(C)/C(=N/Nc3ccccc3)CC[C@@H]12 | > 100 µM |
| C[C@]12CC[C@H](O)CC1=CC[C@@H]1[C@@H]2CC[C@]2(C)/C(=N/N=C3\C(=O)Nc4ccc(Br)cc43)CC[C@@H]12 | 14.8 µM |
| C[C@]12CC[C@H](O)CC1=CC[C@@H]1[C@@H]2CC[C@]2(C)/C(=N/Nc3ncccc3Cl)CC[C@@H]12 | > 90 µM |
| C[C@]12CC[C@H](O)CC1=CC[C@@H]1[C@@H]2CC[C@]2(C)/C(=N/Cc3ccccc3)CC[C@@H]12 | 42.5 µM |
| C[C@]12CC[C@H](O)CC1=CC[C@@H]1[C@@H]2CC[C@]2(C)/C(=N/c3ccccc3)CC[C@@H]12 | 82.7 µM |
| C[C@]12CC[C@H](O)CC1=CC[C@@H]1[C@@H]2CC[C@]2(C)/C(=N/N=C3\C(=O)Nc4ccc([N+](=O)[O-])cc43)CC[C@@H]12 | 69 µM |
| C[C@]12CC[C@H](O)CC1=CC[C@@H]1[C@@H]2CC[C@]2(C)/C(=N/N=C3\C(=O)Nc4ccccc43)CC[C@@H]12 | 25.2 µM |
| C[C@]12CC[C@H](O)CC1=CC[C@@H]1[C@@H]2CC[C@]2(C)/C(=N/N=C3\C(=O)Nc4ccc(I)cc43)CC[C@@H]12 | 43.7 µM |

Test system: A875
Assay: as §2
Assay type: functional, cell-based
Conditions: not given

| SMILES | growth inhibition (GI) |
| --- | --- |
| O=c1[nH]cc(F)c(=O)[nH]1 [FLUOROURACIL] | Dose-dependent effect |
| C[C@]12CC[C@H](O)CC1=CC[C@@H]1[C@@H]2CC[C@]2(C)/C(=N/N=C3\C(=O)Nc4cc(F)ccc43)CC[C@@H]12 | Dose-dependent effect |
| C[C@]12CC[C@H](O)CC1=CC[C@@H]1[C@@H]2CC[C@]2(C)/C(=N/N=C3\C(=O)Nc4ccc(Br)cc43)CC[C@@H]12 | Dose-dependent effect |
| C[C@]12CC[C@H](O)CC1=CC[C@@H]1[C@@H]2CC[C@]2(C)/C(=N/N=C3\C(=O)Nc4ccccc43)CC[C@@H]12 | Dose-dependent effect |

Test system: not listed separately
Assay: Cytotoxicity against 5-fluorouracil-resistant human Bel7402 cells assessed as growth inhibition after 72 hrs by MTT assay
Assay type: functional, cell-based
Conditions: Bel-7402, 72 h

| SMILES | IC50 |
| --- | --- |
| O=c1[nH]cc(F)c(=O)[nH]1 [FLUOROURACIL] | > 700 µM |
| CC(C)c1ccc(/N=C2\CC[C@H]3[C@@H]4CC=C5C[C@@H](O)CC[C@]5(C)[C@H]4CC[C@]23C)cc1 | > 90 µM |
| C[C@]12CC[C@H](O)CC1=CC[C@@H]1[C@@H]2CC[C@]2(C)/C(=N/N=C3\C(=O)Nc4cc(F)ccc43)CC[C@@H]12 | 12.8 µM |
| C[C@]12CC[C@H](O)CC1=CC[C@@H]1[C@@H]2CC[C@]2(C)/C(=N/Nc3ccccc3)CC[C@@H]12 | 29.9 µM |
| C[C@]12CC[C@H](O)CC1=CC[C@@H]1[C@@H]2CC[C@]2(C)/C(=N/N=C3\C(=O)Nc4ccc(Br)cc43)CC[C@@H]12 | 5.97 µM |
| C[C@]12CC[C@H](O)CC1=CC[C@@H]1[C@@H]2CC[C@]2(C)/C(=N/Cc3ccccc3)CC[C@@H]12 | > 100 µM |
| C[C@]12CC[C@H](O)CC1=CC[C@@H]1[C@@H]2CC[C@]2(C)/C(=N/c3ccccc3)CC[C@@H]12 | > 100 µM |
| C[C@]12CC[C@H](O)CC1=CC[C@@H]1[C@@H]2CC[C@]2(C)/C(=N/N=C3\C(=O)Nc4ccc([N+](=O)[O-])cc43)CC[C@@H]12 | 10.1 µM |
| C[C@]12CC[C@H](O)CC1=CC[C@@H]1[C@@H]2CC[C@]2(C)/C(=N/N=C3\C(=O)Nc4ccccc43)CC[C@@H]12 | 21.8 µM |
| C[C@]12CC[C@H](O)CC1=CC[C@@H]1[C@@H]2CC[C@]2(C)/C(=N/N=C3\C(=O)Nc4ccc(I)cc43)CC[C@@H]12 | 14.1 µM |

Test system: HepG2
Assay: Cytotoxicity against human HepG2 cells assessed as decrease in cell level at 10 ug/ml after 48 hrs by inverted microscopic analysis
Assay type: functional, cell-based
Conditions: not given

| SMILES | Activity |
| --- | --- |
| C[C@]12CC[C@H](O)CC1=CC[C@@H]1[C@@H]2CC[C@]2(C)/C(=N/N=C3\C(=O)Nc4ccc(Br)cc43)CC[C@@H]12 | Active |
| C[C@]12CC[C@H](O)CC1=CC[C@@H]1[C@@H]2CC[C@]2(C)/C(=N/N=C3\C(=O)Nc4ccccc43)CC[C@@H]12 | Active |

Test system: HepG2
Assay: Cytotoxicity against human HepG2 cells assessed as cell shrinkage at 10 ug/ml after 48 hrs by inverted microscopic analysis
Assay type: functional, cell-based
Conditions: not given

| SMILES | Activity |
| --- | --- |
| C[C@]12CC[C@H](O)CC1=CC[C@@H]1[C@@H]2CC[C@]2(C)/C(=N/N=C3\C(=O)Nc4ccc(Br)cc43)CC[C@@H]12 | Active |
| C[C@]12CC[C@H](O)CC1=CC[C@@H]1[C@@H]2CC[C@]2(C)/C(=N/N=C3\C(=O)Nc4ccccc43)CC[C@@H]12 | Active |

— ChEMBL document CHEMBL3616421, “Discovery of novel isatin-dehydroepiandrosterone conjugates as potential anticancer agents” (Bioorg Med Chem Lett, 2015)
